Data on 20 compounds can be found in patent US20250281424A1 (New York Blood Center, Inc, priority 2020, published 2025).

The target of this experiment is T1, human PF4 (Homo sapiens, UniProt P02776).
T1 construct: PF4 is a 70 amino acid, lysine-rich 7.8 kDa platelet-specific protein; made in house; host or cells: Escherichia coli BL21DE3 pLysS (pT7-7) and/or Drosophila S2 cells
T1 sequence (P02776 32-101): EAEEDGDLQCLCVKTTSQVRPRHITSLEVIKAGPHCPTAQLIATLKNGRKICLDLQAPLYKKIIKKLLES
As to the kind of experiment: Inhibition of PF4 tetramer formation (BS3 cross-linking, SDS-PAGE). The experiment is classed as biochemical. As to conditions: for IC50: read-out: IC50 of PF4 tetramer formation inhibition; for inhibition at 5 µM: 5 μM inhibitor; for inhibition at 10 µM: 10 μM inhibitor (column A). A digest of the protocol: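 Monomer, dimer, trimer and tetramer fractions were quantified by densitometry after reducing 12% SDS-PAGE of BS3-cross-linked (0.2 mM, 30 min, room temperature) PF4. Before cross-linking, 10 μg/ml E. coli-expressed human WT PF4 in PBS was exposed to compound for 15 min at 37° C or 60 min at room temperature; controls lacked compound.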

Setting [1] is: read-out: % inhibition of PF4 tetramer formation at single concentration of inhibitor.
The mark [2] stands for this setting: 1 μM inhibitor, read-out: % inhibition of PF4 tetramer formation at single concentration of inhibitor.
Where [3] appears, read: 3 μM inhibitor (column A), read-out: % inhibition of PF4 tetramer formation at single concentration of inhibitor.

For orientation: IC50 means the concentration at which inhibition is half-maximal. As to `CC(C)(C)OC(=O)N1CCCC[C@H]1C(=O)C1C(=O)c2ccc(C(=O)c3ccc4c(c3)C(=O)C(C(=O)[C@@H]3CCCCN3C(=O)OC(C)(C)C)C4=O)cc2C1=O` (stereo partly drawn) [Example 127, tert-butyl (2S)-2-(5-{2-[(2S)-1-[(tert-butoxy)carbonyl]piperidine-2-carbonyl]-1,3-dioxo-2,3-dihydro-1H-indene-5-carbonyl}-1,3-dioxo-2,3-dihydro-1H-indene-2-carbonyl)piperidine-1-carboxylate], the IC50 is 1 µM.
On to `CC(C)(C)OC(=O)N1CCC[C@H]1C(=O)C1C(=O)c2ccc(C(=O)c3ccc4c(c3)C(=O)C(C(=O)[C@@H]3CCCN3C(=O)OC(C)(C)C)C4=O)cc2C1=O` (stereo partly drawn) [Example 111, tert-butyl (2S)-2-(5-{2-[(2S)-1-[(tert-butoxy)carbonyl]pyrrolidine-2-carbonyl]-1,3-dioxo-2,3-dihydro-1H-indene-5-carbonyl}-1,3-dioxo-2,3-dihydro-1H-indene-2-carbonyl)pyrrolidine-1-carboxylate], for which the IC50 stood at 0.5 µM. For the same compound, under setting [1], the inhibition at 5 µM was 100% and the inhibition at 10 µM is 100%.
For the compound `O=C(Cn1cnnn1)C1C(=O)c2ccc(S(=O)(=O)c3ccc4c(c3)C(=O)C(C(=O)Cn3cnnn3)C4=O)cc2C1=O` (stereo not shown) [Example 169, 5-({1,3-dioxo-2-[2-(1H-1,2,3,4-tetrazol-1-yl)acetyl]-2,3-dihydro-1H-inden-5-yl}sulfonyl)-2-[2-(1H-1,2,3,4-tetrazol-1-yl)acetyl]-2,3-dihydro-1H-indene-1,3-dione], the IC50 was found to be 3 µM. Also, under setting [1], the inhibition at 5 µM was 70% and the inhibition at 10 µM was determined as 86%.
For the compound `O=C1c2ccc(Oc3ccc4c(c3)C(=O)C(C(=O)C3CCCCC3)C4=O)cc2C(=O)C1C(=O)C1CCCCC1` (stereo not shown) [Example 286, 2-cyclohexanecarbonyl-5-[(2-cyclohexanecarbonyl-1,3-dioxo-2,3-dihydro-1H-inden-5-yl)oxy]-2,3-dihydro-1H-indene-1,3-dione], the IC50 came out at 3 µM. The inhibition at 1 µM under setting [2] is 37%. Moreover, under setting [3], the inhibition at 3 µM was found to be 47%.
Take `C[C@@H](C(=O)C1C(=O)c2ccc(C(=O)c3ccc4c(c3)C(=O)C(C(=O)[C@H](C)N(C)C(=O)OC(C)(C)C)C4=O)cc2C1=O)N(C)C(=O)OC(C)(C)C` (stereo partly drawn) [Example 155, tert-butyl N-[(2S)-1-(5-{2-[(2S)-2-{[(tert-butoxy)carbonyl](methyl)amino}propanoyl]-1,3-dioxo-2,3-dihydro-1H-indene-5-carbonyl}-1,3-dioxo-2,3-dihydro-1H-inden-2-yl)-1-oxopropan-2-yl]-N-methylcarbamate]: the IC50 is 2.1 µM. In addition, under setting [1], the inhibition at 5 µM was 95% and the inhibition at 10 µM is 100%.
For the compound `CC(C)(C)OC(=O)N1CCC[C@H]1CC(=O)C1C(=O)c2ccc(C(=O)c3ccc4c(c3)C(=O)C(C(=O)C[C@@H]3CCCN3C(=O)OC(C)(C)C)C4=O)cc2C1=O` (stereo in doubt) [Example 112, tert-butyl (2S)-2-{2-[5-(2-{2-[(2S)-1-[(tert-butoxy)carbonyl]pyrrolidin-2-yl]acetyl}-1,3-dioxo-2,3-dihydro-1H-indene-5-carbonyl)-1,3-dioxo-2,3-dihydro-1H-inden-2-yl]-2-oxoethyl}pyrrolidine-1-carboxylate], the IC50 was 1.2 µM. Under setting [1], the inhibition at 5 µM is 84% and the inhibition at 10 µM amounted to 89%.
`CC(C)(C)OC(=O)N1CSC[C@H]1C(=O)C1C(=O)c2ccc(-c3ccc4c(c3)C(=O)C(C(=O)[C@@H]3CSCN3C(=O)OC(C)(C)C)C4=O)cc2C1=O` (stereo partly drawn) [Example 210, tert-butyl (4R)-4-{2′-[(4R)-3-[(tert-butoxy)carbonyl]-1,3-thiazolidine-4-carbonyl]-1,1′,3,3′-tetraoxo-1H,1′H,2H,2′H,3H,3′H-[5,5′-biindene]-2-carbonyl}-1,3-thiazolidine-3-carboxylate]: the IC50 is about 5 µM. Under setting [1], the inhibition at 5 µM was 62% and the inhibition at 10 µM stood at 94%.
Regarding `O=C(c1ccc2c(c1)C(=O)C(C(=O)Nc1ccccc1)C2=O)c1ccc2c(c1)C(=O)C(C(=O)Nc1ccccc1)C2=O` (stereo not shown) [Example 14, 5,5′-carbonylbis(1,3-dioxo-indan-2-carboxylic acid phenylamide)], the IC50 came out at 1 µM. The inhibition at 30 µM (30 μM inhibitor, read-out: % inhibition of PF4 tetramer formation at single concentration of inhibitor) amounted to 96%.
With `O=C(Nc1ccccc1)C1C(=O)c2ccc(S(=O)(=O)c3ccc4c(c3)C(=O)C(C(=O)Nc3ccccc3)C4=O)cc2C1=O` (stereo not shown) [Example 37, 5,5′-sulphonylbis(1,3-dioxo-indan-2-carboxylic acid (phenyl)-amide)], the IC50 was about 1 µM.
With `O=C(COc1ccccc1)C1C(=O)c2ccc(S(=O)(=O)c3ccc4c(c3)C(=O)C(C(=O)COc3ccccc3)C4=O)cc2C1=O` (stereo not shown) [Example 144, 5-{[1,3-dioxo-2-(2-phenoxyacetyl)-2,3-dihydro-1H-inden-5-yl]sulfonyl}-2-(2-phenoxyacetyl)-2,3-dihydro-1H-indene-1,3-dione], the IC50 was found to be 4.7 µM.
On the same count and under the same terms, to `CC(=O)C1(C(=O)OC(C)C)C(=O)c2ccc(Oc3ccc4c(c3)C(=O)CC4=O)cc2C1=O` (stereo not shown) [Example 8, ethyl 2-acetyl-5-(1,3-dioxo-indan-5-yloxy)-1,3-dioxo-indan-2-carboxylic acid isopropyl ester] belongs 3.4 µM.
For `CC(=O)NCC(=O)C1C(=O)c2ccc(Oc3ccc4c(c3)C(=O)C(C(=O)CNC(C)=O)C4=O)cc2C1=O` (stereo not shown) [Example 246, N-[2-(5-{[2-(2-acetamidoacetyl)-1,3-dioxo-2,3-dihydro-1H-inden-5-yl]oxy}-1,3-dioxo-2,3-dihydro-1H-inden-2-yl)-2-oxoethyl]acetamide], the IC50 worked out at 3 µM. Further, where the note is “1 μM inhibitor, 1 µM”, the “% inhibition of PF4 tetramer formation at single concentration of inhibitor” value is 12%. Besides, where the note is “3 μM inhibitor (column A), 3 µM”, the “% inhibition of PF4 tetramer formation at single concentration of inhibitor” value was found to be 30%.
As to `CC(C)(C)OC(=O)N1CCCC[C@@H]1C(=O)C1C(=O)c2ccc(Oc3ccc4c(c3)C(=O)C(C(=O)[C@H]3CCCCN3C(=O)OC(C)(C)C)C4=O)cc2C1=O` (stereo partly drawn) [Example 274, tert-butyl (2R)-2-[5-({2-[(2R)-1-[(tert-butoxy)carbonyl]piperidine-2-carbonyl]-1,3-dioxo-2,3-dihydro-1H-inden-5-yl}oxy)-1,3-dioxo-2,3-dihydro-1H-indene-2-carbonyl]piperidine-1-carboxylate], the inhibition at 1 µM under setting [2] stood at 21%. In addition, under setting [3], the inhibition at 3 µM came out at 60%.
On to `O=C1c2ccc(Oc3ccc4c(c3)C(=O)C(C(=O)C3CCC3)C4=O)cc2C(=O)C1C(=O)C1CCC1` (stereo not shown) [Example 297, 2-cyclobutanecarbonyl-5-[(2-cyclobutanecarbonyl-1,3-dioxo-2,3-dihydro-1H-inden-5-yl)oxy]-2,3-dihydro-1H-indene-1,3-dione], for which the IC50 came to 1.74 µM. The inhibition at 1 µM under setting [2] worked out at 38%. The inhibition at 3 µM under setting [3] is 100%.
As to `CC(C)CC(=O)C1C(=O)c2ccc(S(=O)(=O)c3ccc4c(c3)C(=O)C(C(=O)CC(C)C)C4=O)cc2C1=O` (stereo not shown) [Example 145, 2-(3-methylbutanoyl)-5-{[2-(3-methylbutanoyl)-1,3-dioxo-2,3-dihydro-1H-inden-5-yl]sulfonyl}-2,3-dihydro-1H-indene-1,3-dione], under setting [1], the inhibition at 5 µM is 45% and the inhibition at 10 µM came to 55%.
On to `O=C(c1ccc2c(c1)C(=O)C(C(=O)COc1ccccc1)C2=O)c1ccc2c(c1)C(=O)C(C(=O)COc1ccccc1)C2=O` (stereo not shown) [Example 143, 5,5-[1,3-dioxo-2-(2-phenoxyacetyl)-2,3-dihydro-1H-indene-5-carbonyl]-2-(2-phenoxyacetyl)-2,3-dihydro-1H-indene-1,3-dione], for which the IC50 turned out to be 7 µM.
Take `CCCCc1ccc(NC(=O)C2C(=O)c3ccc(C(=O)c4ccc5c(c4)C(=O)C(C(=O)Nc4ccc(CCCC)cc4)C5=O)cc3C2=O)cc1` (stereo not shown) [Example 101, N-(4-butylphenyl)-5-{2-[(4-butylphenyl)carbamoyl]-1,3-dioxo-2,3-dihydro-1H-indene-5-carbonyl}-1,3-dioxo-2,3-dihydro-1H-indene-2-carboxamide]: under setting [1], the inhibition at 5 µM came out at 80% and the inhibition at 10 µM came to 71%.
Turning to `O=C1c2ccc(Oc3ccc4c(c3)C(=O)C(C(=O)C3CCCC3)C4=O)cc2C(=O)C1C(=O)C1CCCC1` (stereo not shown) [Example 251, 2-cyclopentanecarbonyl-5-[(2-cyclopentanecarbonyl-1,3-dioxo-2,3-dihydro-1H-inden-5-yl)oxy]-2,3-dihydro-1H-indene-1,3-dione], the concentration for half-maximal inhibition (IC50) came out at 3 µM. Moreover, under setting [2], the inhibition at 1 µM was 32%. In addition, the inhibition at 3 µM under setting [3] was 45%.
As for `NCC(=O)C1C(=O)c2ccc(Oc3ccc4c(c3)C(=O)C(C(=O)CN)C4=O)cc2C1=O` (stereo not shown) [Example 326, 2-(2-aminoacetyl)-5-{[2-(2-aminoacetyl)-1,3-dioxo-2,3-dihydro-1H-inden-5-yl]oxy}-2,3-dihydro-1H-indene-1,3-dione], the inhibition at 1 µM under setting [2] amounted to 13%. The inhibition at 3 µM under setting [3] stood at 26%.
In the case of `CC(=O)C1C(=O)c2ccc(Oc3ccc4c(c3)C(=O)C(C(C)=O)C4=O)cc2C1=O` (stereo not shown) [Example 9, 5-(2-acetyl-2,3-dihydro-1,3-dioxo-1h-inden-6-yloxy)-2-acetyl-2,3-dihydro-1,3-dioxo-1h-indene], the IC50 was found to be 52 µM.
